According to article PMC3179267 (Biochemistry, 2011):
Where a SMILES comes first, the peptide text is derived from it. Bridges are numbered along the chain shown (N, C = ends).

Legend:
[1] = test system: trypsin; assay: Protease susceptibility assay; assay type: in vitro ADME; conditions: 80 μM peptide, pH 8.2, room temperature, up to 60 min, analytical HPLC
[2] = test system: trypsin; conditions: cited from earlier work

Compound | susceptibility to trypsin [1] | susceptibility to trypsin, literature [2]
CC[C@H](C)[C@H](NC(=O)[C@H](CCC(=O)O)NC(=O)[C@H](CS)NC(=O)[C@@H](NC(=O)CNC(=O)[C@H](CO)NC(=O)[C@H](CC(C)C)NC(=O)[C@H](CO)NC(=O)[C@H](CCC(=O)O)NC(=O)[C@H](CCCNC(=N)N)NC(=O)[C@@H](NC(=O)[C@H](C)NC(=O)[C@H](CS)NC(=O)[C@H](CCCNC(=N)N)NC(=O)CNC(=O)[C@@H](NC(=O)[C@H](CCCNC(=N)N)NC(=O)[C@H](CS)NC(=O)[C@H](Cc1ccc(O)cc1)NC(=O)[C@H](CS)NC(=O)[C@@H](NC(=O)[C@H](C)N)[C@@H](C)O)[C@@H](C)O)[C@@H](C)O)C(C)C)C(=O)N[C@@H](CO)C(=O)NCC(=O)N[C@@H](CCCNC(=N)N)C(=O)N[C@@H](CC(C)C)C(=O)N[C@@H](Cc1ccc(O)cc1)C(=O)N[C@@H](CCCNC(=N)N)C(=O)N[C@@H](CC(C)C)C(=O)N[C@@H](CS)C(=O)N[C@@H](CS)C(=O)N[C@@H](CCCNC(=N)N)C(=O)O [HD5red] (H-ATCYCRTGRCATRESLSGVCEISGRLYRLCCR-OH) | rapid proteolytic cleavage | 
CC[C@H](C)[C@@H]1NC(=O)[C@H](CCC(=O)O)NC(=O)[C@@H]2CSSC[C@@H]3NC(=O)[C@H](Cc4ccc(O)cc4)NC(=O)[C@@H](NC(=O)[C@@H](NC(=O)[C@H](C)N)[C@@H](C)O)CSSC[C@@H](C(=O)N[C@@H](CCCNC(=N)N)C(=O)O)NC(=O)[C@H](CSSC[C@H](NC(=O)[C@H](CCCNC(=N)N)NC(=O)CNC(=O)[C@H]([C@@H](C)O)NC(=O)[C@H](CCCNC(=N)N)NC3=O)C(=O)N[C@@H](C)C(=O)N[C@@H]([C@@H](C)O)C(=O)N[C@@H](CCCNC(=N)N)C(=O)N[C@@H](CCC(=O)O)C(=O)N[C@@H](CO)C(=O)N[C@@H](CC(C)C)C(=O)N[C@@H](CO)C(=O)NCC(=O)N[C@@H](C(C)C)C(=O)N2)NC(=O)[C@H](CC(C)C)NC(=O)[C@H](CCCNC(=N)N)NC(=O)[C@H](Cc2ccc(O)cc2)NC(=O)[C@H](CC(C)C)NC(=O)[C@H](CCCNC(=N)N)NC(=O)CNC(=O)[C@H](CO)NC1=O [HD5ox] (H-ATCYCRTGRCATRESLSGVCEISGRLYRLCCR-OH; disulfide 3-31, 5-20, 10-30) | not accepted as a substrate | very poor substrate
